The results in this text go back to patent US8912163B2, “Compositions for the treatment or prophylaxis of viral infections” (Katholieke Universiteit Leuven, priority 2007, dated 2014).

Values after ≈ are worked out from the molar mass of the structure shown.

A short description of this data set: Water-solubility by HPLC. The format is physicochemical. The following applies: deionised water, room temperature. As to the method:
HPLC was carried out on a Waters 484 System using Novapack C18 reverse phase column. Flow rate: 1 mL/min. Detection: UV 254 nm. […] The samples were centrifuged at 14.000 rpm in an Eppendorf micro-centrifuge for 1.5 min at room temperature. An aliquot of the clear supernatant was removed and diluted to a concentration within the range of a five-point standard curve. Water-solubility was calculated from each peak area of the above solution by HPLC compared with the sample dissolved in acetonitrile, the concentration of which is already known.

Usually solubility stands for how much of the substance goes into solution per volume.

`CCCCCc1ccc(-c2cc3cn([C@H]4CC(O)[C@@H](CO)O4)c(=O)nc3o2)cc1` (some centres unmarked) [Compound 1, reference compound]: the Solubility in water (overnight, means of three determinations) was 22 ± 7 µg/mL (≈ 55.2 µM). Moreover, the solubility (thermodynamic from solid, read-out: water-solubility) is 22 µg/mL (≈ 55.2 µM).
